Where two headings read alike, the source gives them in different places.
Assays:
STAT-3 = STAT-3 DNA binding in BEAS-2B cells (TransAM); type: cell-based, human; details: IFNγ + TNFα, inhibitor 10^-6M
Procedure: STAT phosphorylation, nuclear translocation and DNA binding was determined using TransAM assays (Actif Motif, Rixensart, Belgium). Cells were treated with JAK inhibitors for 30 min prior to stimulation for 1h. Nuclear extracts were prepared using the Actif Motif assay reagents. Briefly, the nuclear extracts (10 μg) were incubated in DNA coated plates for 1h. After washing, antibodies supplied with the TransAM kit that were specific for the active forms of STAT1, STAT3, STAT5A and STAT5B were added to the wells and incubated for a further hour. The plates were washed and a secondary HRP-labelled anti-goat Ig antibody was added and the plates incubated for an hour. After washing, the assay was developed using the TMB substrate provided and the reaction stopped using 2N sulphuric acid. The plates were read at 450nm with a reference filter of 610nm. Data were then normalised to non-stimulated cells and calculated as fold change from baseline.
After 1 h, nuclear extracts of the cells were prepared and TransAM assays for STAT-1 (panel a) and STAT-3 (panel b) were performed. Data are presented as fold change from baseline ± SEM; n = 4.

[1] = system: BEAS-2B and human primary airway epithelial cells; experiment: Cell viability, MTT assay; type: cell-based
Procedure: Cell viability was determined colorimetrically by measuring the reduction of 3-[4,5-dimethylthiazol-2-yl]-2,5-diphenyltetrazolium bromide, MTT, to formazan by mitochondrial dehydrogenases, as described previously.
In order to determine whether any of the inhibitory effects of the JAK inhibitors could be attributed to cell death, MTT assays were performed at the end of every experiment. […] In order to address this issue, the levels of IL-6 released from cells stimulated with IFNγ + TNFα were measured.

BEAS-2B cells [2] = experiment: mRNA expression of CXCL9, CXCL10 and CXCL11 in BEAS-2B cells (Taqman RT-PCR); type: cell-based, human; details: BEAS-2b, pretreated 1h, IFNγ or IFNγ with TNFα for 4h
Procedure: Total RNA was extracted from cells and reverse transcribed, as described previously. Gene expression was determined by Taqman real-time PCR on a 7500 Real Time PCR system (Applied Biosystems, Life Technologies Ltd, Paisley, UK) using PCR Master Mix Reagent and ‘assays on demand’ (Applied Biosystems). HPRT1 gene expression was used as the housekeeping gene and data presented as δδCT relative to baseline.
Gene expression of CXCL9 (panels a and b), CXCL10 (panels c and d) and CXCL11 (panels e and f) were quantified by Taqman RT-PCR. Data are presented as fold change form stimulus ± SEM; n = 3 where 1 indicates the level of mRNA induced by IFNγ or IFNγ + TNFα in the absence of inhibitors.

[3] = system: human primary airway epithelial cells; experiment: Release of CXCL9, CXCL10 and CXCL11 from human primary airway epithelial cells (ELISA); type: cell-based; details: for IC50 / EC50: Homo sapiens, Epithelial cell, pre-treated 1h; for IC50: pooled primary cells
Procedure: (§1) BEAS-2B cells (catalogue number CRL-9609) were purchased directly from American Type Culture Collection (Rockville, MD). Keratinocyte serum-free medium (K-SFM), bovine pituitary extract (BPE), and recombinant human epidermal growth factor (EGF) were purchased from Invitrogen (Paisley, UK). BEAS-2B cells were cultured in K-SFM containing 50 μg/ml BPE and 5 ng/ml EGF at 37°C in a humidified atmosphere comprising 5% (v/v) CO2 in air. Cells were cultured as monolayers in growth factor-free media for 24 h prior to stimulation. Human primary airway epithelial cells were cultured as monolayers from bronchial brushings from both male and female subjects (Table 1) and cultured in LHC-9 media (Invitrogen, Paisley, UK) in collagen (1% w/v) coated flasks. Samples were obtained from non-smokers, smokers and patients with COPD. […] The subjects were matched for age and smokers and COPD patients for smoking history (Table 1). All subjects gave informed written consent and the study was approved by the NRES London-Chelsea Research Ethics committee, study number 09/H0801/85.
(§2) Cell-free supernatants were removed 20h post-stimulation and assayed for CXCL9, CXCL10 and CXCL11 using Duoset ELISA kits (R & D Systems Europe, Abingdon, UK) according to the manufacturer’s instructions. The detection limits of these assays are 62pg/ml, 31pg/ml, and 7.8 pg/ml respectively.
(§3) Data are presented as mean ± SEM of ‘n’ independent determinations. Concentration-response curves were analysed by least-squares, non-linear iterative regression with the ‘Graphpad Prism’ curve fitting program (GraphPad software, San Diego, USA) and IC50 values were subsequently interpolated from curves of best-fit. Statistical differences were determined using the Kruskal–Wallis test followed by Dunn's multiple comparison test or a Wilcoxon signed rank test as appropriate. Values of P<0.05 were considered significant.
Media was harvested and the concentrations of CXCL9 (panels a and d), CXCL10 (panels b and e) and CXCL11 (panels c and f) were measured by ELISA. Data are presented as mean ± SEM, n = 10–13.

BEAS-2B cells [4] = experiment: Release of CXCL9, CXCL10 and CXCL11 from BEAS-2B cells (ELISA), inhibitors added 1h before stimulus; type: cell-based, human; details: for IC50: Homo sapiens, BEAS-2B, pre-treated 1h
Procedure: as §1, §2, §3
Media was harvested and the concentrations of CXCL9 (panels a and d), CXCL10 (panels b and e) and CXCL11 (panels c and f) were measured by ELISA. Data are presented as mean±SEM, n = 7–8.

[5] = IFNγ (10ng/ml) 20h, read-out: IC50, release of CXCL9
[6] = IFNγ (10ng/ml) 20h, read-out: IC50, release of CXCL10
[7] = IFNγ (10ng/ml) 20h, read-out: IC50, release of CXCL11
[8] = IFNγ+TNFα (10ng/ml) 20h, read-out: IC50, release of CXCL9
[9] = IFNγ+TNFα (10ng/ml) 20h, read-out: IC50, release of CXCL10
[10] = IFNγ+TNFα (10ng/ml) 20h, read-out: IC50, release of CXCL11

Q: How did the “effect on STAT-3 binding to DNA” value (STAT-3) turn out when `CCc1cc(O)ccc1-c1ccc2c(-c3nc4ccccc4[nH]3)n[nH]c2c1` [PF1367550, 4-(3-(1H-benzo[d]imidazol-2-yl)-1H-indazol-6-yl)-3-ethylphenol] was run?
A: suppressed

Q: What about the “cell viability compared to untreated cells (MTT)” value ([1]; at 10^-6M and at all concentrations below this) of the same molecule?
A: no alterations in cell viability

Q: And the “effect on cell viability (MTT)” value ([1]; within 10^3 of the IC50 for this compound)?
A: no effect on cell viability

Q: What about the “effect on expression of CXCL9, CXCL10 and CXCL11 (mRNA)” value (BEAS-2B cells [2]) of the same molecule?
A: completely inhibited

Q: What about the IC50 [3, 5] of the same molecule?
A: 8.4 ± 1.3 nM

Q: What about the IC50 [3, 6] of the same molecule?
A: 10.4 ± 1.7 nM

Q: What about the IC50 [3, 7] of the same molecule?
A: 7 ± 0.9 nM

Q: And the IC50 [3, 8]?
A: 17.6 ± 3 nM

Q: And the IC50 [3, 9]?
A: 24.3 ± 2.4 nM

Q: And the IC50 [3, 10]?
A: 14.5 ± 2.4 nM

Q: What about the EC50 ([3]; primary cells from COPD patients, IFNγ (10 ng/ml) 20h, read-out: EC50, release of CXCL9) of the same molecule?
A: 7.4 ± 1.3 nM

Q: What about the EC50 ([3]; primary cells from COPD patients, IFNγ (10 ng/ml) 20h, read-out: EC50, release of CXCL10) of the same molecule?
A: 7.1 ± 1.3 nM

Q: And the EC50 ([3]; primary cells from COPD patients, IFNγ (10 ng/ml) 20h, read-out: EC50, release of CXCL11)?
A: 6.3 ± 1.4 nM

Q: And the EC50 ([3]; primary cells from COPD patients, IFNγ +TNFα (10 ng/ml) 20h, read-out: EC50, release of CXCL9)?
A: 20.8 ± 4.8 nM

Q: And the EC50 ([3]; primary cells from COPD patients, IFNγ +TNFα (10 ng/ml) 20h, read-out: EC50, release of CXCL10)?
A: 29.1 ± 3.5 nM

Q: What about the EC50 ([3]; primary cells from COPD patients, IFNγ +TNFα (10 ng/ml) 20h, read-out: EC50, release of CXCL11) of the same molecule?
A: 16.7 ± 4.1 nM

Q: And the EC50 ([3]; primary cells from non-smokers, IFNγ (10 ng/ml) 20h, read-out: EC50, release of CXCL9)?
A: 9.73 ± 3.5 nM

Q: What about the EC50 ([3]; primary cells from non-smokers, IFNγ (10 ng/ml) 20h, read-out: EC50, release of CXCL10) of the same molecule?
A: 12.8 ± 5.6 nM

Q: And the EC50 ([3]; primary cells from non-smokers, IFNγ (10 ng/ml) 20h, read-out: EC50, release of CXCL11)?
A: 8.5 ± 0.7 nM

Q: What about the EC50 ([3]; primary cells from non-smokers, IFNγ +TNFα (10 ng/ml) 20h, read-out: EC50, release of CXCL9) of the same molecule?
A: 14.1 ± 7.1 nM

Q: What about the EC50 ([3]; primary cells from non-smokers, IFNγ +TNFα (10 ng/ml) 20h, read-out: EC50, release of CXCL10) of the same molecule?
A: 20.3 ± 5.1 nM

Q: What about the EC50 ([3]; primary cells from non-smokers, IFNγ +TNFα (10 ng/ml) 20h, read-out: EC50, release of CXCL11) of the same molecule?
A: 13.7 ± 6.7 nM

Q: And the EC50 ([3]; primary cells from smokers, IFNγ (10 ng/ml) 20h, read-out: EC50, release of CXCL9)?
A: 9 ± 3 nM

Q: What about the EC50 ([3]; primary cells from smokers, IFNγ (10 ng/ml) 20h, read-out: EC50, release of CXCL10) of the same molecule?
A: 12.3 ± 0.36 nM

Q: What about the EC50 ([3]; primary cells from smokers, IFNγ (10 ng/ml) 20h, read-out: EC50, release of CXCL11) of the same molecule?
A: 6.8 ± 1.9 nM

Q: What about the EC50 ([3]; primary cells from smokers, IFNγ +TNFα (10 ng/ml) 20h, read-out: EC50, release of CXCL9) of the same molecule?
A: 15.3 ± 4.8 nM

Q: And the EC50 ([3]; primary cells from smokers, IFNγ +TNFα (10 ng/ml) 20h, read-out: EC50, release of CXCL10)?
A: 20.2 ± 3.6 nM

Q: And the EC50 ([3]; primary cells from smokers, IFNγ +TNFα (10 ng/ml) 20h, read-out: EC50, release of CXCL11)?
A: 11.8 ± 2.9 nM

Q: What about the “fold more potent than PF956980, CXCR3 chemokine release” value ([3]; pooled human primary airway epithelial cells) of the same molecule?
A: ~ 80 fold

Q: And the “fold more potent than PF956980, CXCR3 chemokine release” value (BEAS-2B cells [4]; BEAS-2B cells, IFNγ and IFNγ+TNFα)?
A: ~ 50 fold

Q: And the IC50 (BEAS-2B cells [4]; [5])?
A: 3.6 ± 1.4 nM

Q: And the IC50 (BEAS-2B cells [4]; [6])?
A: 6.1 ± 2 nM

Q: And the IC50 (BEAS-2B cells [4]; [7])?
A: 11.5 ± 2 nM

Q: What about the IC50 (BEAS-2B cells [4]; [8]) of the same molecule?
A: 13.3 ± 2 nM

Q: What about the IC50 (BEAS-2B cells [4]; [9]) of the same molecule?
A: 50.3 ± 8.5 nM

Q: And the IC50 (BEAS-2B cells [4]; [10])?
A: 13.9 ± 2.6 nM
